Reference: PubChem BioAssay AID458

Molecular target: NAD-dependent protein deacylase sirtuin-5, mitochondrial (Homo sapiens) (UniProt Q9NXA8)
Test: ligand binding to SIRT5 via aggregation temperature – biophysical, StarGazer light scattering (AID 458)
Settings: SIRT5 thermal stabilisation, at 1 mM, protein 12 µM, stronger effect = higher value

Chain of NAD-dependent protein deacylase sirtuin-5, mitochondrial (Homo sapiens) (Q9NXA8 whole entry, looked up): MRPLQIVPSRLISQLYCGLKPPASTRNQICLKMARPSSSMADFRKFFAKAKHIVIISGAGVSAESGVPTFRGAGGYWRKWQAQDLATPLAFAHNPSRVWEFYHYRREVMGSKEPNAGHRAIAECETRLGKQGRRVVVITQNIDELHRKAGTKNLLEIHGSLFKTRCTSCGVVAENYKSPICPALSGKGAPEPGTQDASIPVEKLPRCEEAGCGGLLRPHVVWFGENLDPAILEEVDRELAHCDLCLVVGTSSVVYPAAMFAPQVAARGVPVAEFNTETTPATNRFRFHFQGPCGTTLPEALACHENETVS

Work on `Cc1ccc(C(=O)Nc2ccc(S(=O)(=O)O)c3cc(S(=O)(=O)O)cc(S(=O)(=O)O)c23)cc1NC(=O)c1cccc(NC(=O)Nc2cccc(C(=O)Nc3cc(C(=O)Nc4ccc(S(=O)(=O)O)c5cc(S(=O)(=O)O)cc(S(=O)(=O)O)c45)ccc3C)c2)c1` yielded a Tagg shift of 27 °C.

Molecule `CC(/C=C/C(=O)NO)=C\[C@@H](C)C(=O)c1ccc(N(C)C)cc1` has a Tagg shift of 5.1 °C.
